The numbers were not newly measured in patent US20210346426A1, “COMPOSITION AND METHOD FOR THE TREATMENT OF COVID-19” (priority 2020, published 2021), which cites them from elsewhere.

For series [1] the following is noted: even at high concentration.
Series [2] relates to blood coagulation. The following applies: intravenous injection.
Series [3] relates to blood coagulation.
The conditions of series [4]: after oral administration.

Take `O=C(O)CC(O)(CC(=O)O)C(=O)O` [Citric acid, 2-Hydroxypropane-1,2,3-tricarboxylic acid]: the “Acidity (pKa) pKa2” value is on record as “pKa2 = 4.76”. Further, in series [1], the “effect in contact with skin” value is listed as “not injurious”.

Take `O=C(O)CC(O)(CC(=O)O)C(=O)O` [citrate ion]: in series [2], the “coagulation times of the blood” value is “shortens”. The “effect on blood coagulation in vitro” value in series [3] is given as “acts as an anticoagulant”. In addition, in series [4], the “excreted unchanged in urine” value is on record as “less than 1%”; the “oxidation of the citrate ion” value was “rapidly and almost completely oxidized”.

Turning to `O=C([O-])CC(O)(CC(=O)[O-])C(=O)[O-].[Na+].[Na+].[Na+]` [sodium citrate, Sodium Citrate], the “effect on blood coagulation in vitro” value in series [3] is listed as “prevents the blood from coagulation”.
